Data on 14 compounds can be found in patent publication US11999727B2 (Tango Therapeutics, Inc., priority 2020, dated 2024).

Each structure is given as a SMILES string.

Experiment [1] deals with HAP1 MTAP-deleted cell line. Kind of experiment: SDMA in-cell western assay, HAP1 MTAP-deleted. Particulars: for IC50: Homo sapiens, HAP1, SDMA in-cell western, HAP1 MTAP-deleted, read-out: HAP1 MTAP deleted IC50; for MTAP intact/deleted ratio: IC50 ratio HAP1 MTAP-intact / HAP1 MTAP-deleted, SDMA in-cell western. Format: cell-based. In short, it runs like this: (§1)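 Isogenic HAP1 pair: the MTAP-intact line expresses endogenous MTAP, and the deleted line is MTAP-null. Symmetric dimethylarginine was detected by in-cell western and IC50 values derived for each line.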

Experiment [2] deals with T1, PRMT5 (Homo sapiens, UniProt O14744).
T1 construct: purchased Viva (custom protein)
T1 sequence (O14744 whole entry): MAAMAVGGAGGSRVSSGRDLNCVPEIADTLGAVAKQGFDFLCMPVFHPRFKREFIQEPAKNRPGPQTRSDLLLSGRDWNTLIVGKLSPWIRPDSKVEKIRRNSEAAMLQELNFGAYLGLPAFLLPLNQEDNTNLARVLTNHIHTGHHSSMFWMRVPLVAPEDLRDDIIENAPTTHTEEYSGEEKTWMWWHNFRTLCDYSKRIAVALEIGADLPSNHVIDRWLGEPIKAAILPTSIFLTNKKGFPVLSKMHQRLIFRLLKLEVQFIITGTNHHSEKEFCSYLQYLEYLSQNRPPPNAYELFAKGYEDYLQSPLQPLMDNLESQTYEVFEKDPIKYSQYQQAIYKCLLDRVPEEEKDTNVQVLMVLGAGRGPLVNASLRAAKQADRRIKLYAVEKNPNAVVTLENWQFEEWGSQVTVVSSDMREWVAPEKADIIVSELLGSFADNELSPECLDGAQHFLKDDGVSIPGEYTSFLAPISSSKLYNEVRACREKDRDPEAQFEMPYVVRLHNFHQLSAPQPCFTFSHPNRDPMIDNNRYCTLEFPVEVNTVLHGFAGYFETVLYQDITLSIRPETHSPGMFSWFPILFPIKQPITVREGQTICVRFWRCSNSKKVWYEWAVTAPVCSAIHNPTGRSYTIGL
T1 sequence (Q9BQA1 whole entry partner): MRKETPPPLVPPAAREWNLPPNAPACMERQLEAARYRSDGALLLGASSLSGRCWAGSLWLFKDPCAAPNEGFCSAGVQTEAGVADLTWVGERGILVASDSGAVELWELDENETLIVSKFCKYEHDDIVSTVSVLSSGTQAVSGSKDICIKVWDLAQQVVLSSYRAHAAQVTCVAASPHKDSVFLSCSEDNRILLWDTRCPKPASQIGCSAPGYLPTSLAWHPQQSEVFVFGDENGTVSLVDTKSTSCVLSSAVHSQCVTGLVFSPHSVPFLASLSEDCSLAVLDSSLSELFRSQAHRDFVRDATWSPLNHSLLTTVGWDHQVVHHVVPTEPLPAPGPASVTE
Kind of experiment: PRMT5 biochemical IC50 assay with SAM as cofactor. As to conditions: PRMT5, SAM as cofactor; read-out: SAM IC50.

Experiment [3] deals with T1, PRMT5. Description: PRMT5 biochemical IC50 assay with MTA as cofactor. Particulars: PRMT5, MTA as cofactor; read-out: MTA IC50.
The target in experiment [4] is T1, PRMT5. Description: PRMT5 biochemical IC50 assay with no cofactor. Particulars: PRMT5, no cofactor; read-out: No Cofactor/rel IC50. The text has this:
Table 1 indicates IC50 values (μM) against PRMT5 for exemplary compounds in the presence of SAM as cofactor, with no cofactor, and with MTA as cofactor, respectively (columns 4-6). […] Ki values can be calculated from the IC50 values as described in the Examples section. As detailed in the Examples section, for the assay performed in the presence of SAM, IC50=Ki×1.5 (Ki=IC50/1.5).

In experiment [5] the test system is HAP1 MTAP-intact cell line. Kind of experiment: SDMA in-cell western assay, HAP1 MTAP-intact. As to conditions: HAP1 MTAP-intact; for IC50: Homo sapiens, HAP1, SDMA in-cell western, read-out: MTAP HAP1 intact IC50. The format is cell-based. The arrangement: MTAP HAP1 intact IC50: scale not given here. In short, it runs like this: as §1
For experiment [6], the system named is HAP1 MTAP-deleted cell line. Description: Viability assay, MTAP-deleted cell line. Format: cell-based. As to conditions: Homo sapiens, HAP1, viability assay, HAP1 MTAP-deleted; read-out: HAP1 MTAP deleted viability. The text has this: Table 1 additionally indicates IC50 values in a viability assay for the MTAP-deleted cell line (column 10), indicating the effect of treatment with compound on cell survival.

As to `COc1ncc(NC(=O)C(=O)N2C[C@@H](C)CC[C@@H]2c2ccc3c(c2)C(=O)NC3)cc1C(N)=O` (racemic) [Compound 759, 2-methoxy-5-[[2-[(2S,5R)-5-methyl-2-(3-oxoisoindolin-5-yl)-1-piperidyl]-2-oxo-acetyl]amino]pyridine-3-carboxamide], the IC50 is 100 to 1000 nM in experiment [1]; 50 to 500 nM in experiment [2]; < 50 nM in experiment [3]; 50 to 500 nM in experiment [4]; > 1000 nM in experiment [5]; 1000 to 10000 nM in experiment [6]. Moreover, the MTAP intact/deleted ratio result in experiment [1] was “A (an IC50 ratio greater than or equal to 10 fold)”.

Turning to `Cc1cc(NC(=O)C(=O)N2C[C@H](C)CC[C@H]2C2CC3(CC(N)C3)C2)cnc1N` (mixture of isomers) [Compound 773, N-(6-amino-5-methylpyridin-3-yl)-2-(2-(6-aminospiro[3.3]heptan-2-yl)-5-methylpiperidin-1-yl)-2-oxoacetamide], the IC50 in experiment [1] was 100 to 1000 nM; in experiment [2], 50 to 500 nM; in experiment [3], 50 to 500 nM; in experiment [4], 50 to 500 nM; in experiment [5], > 1000 nM; in experiment [6] it was 1000 to 10000 nM. In addition, the MTAP intact/deleted ratio result in experiment [1] is listed as “B (an IC50 ratio greater than or equal to 3 fold but lower than 10 fold)”.

As for `Cc1cc(NC(=O)C(=O)N2C[C@@H](C)CC[C@H]2C23CC(O)(C2)C3)cnc1N` (racemic) [Compound 774], the IC50 was > 1000 nM in experiment [1]; > 500 nM in experiment [2]; 50 to 500 nM in experiment [3]; > 500 nM in experiment [4]; > 1000 nM in experiment [5]; > 10000 nM in experiment [6]. Besides, in experiment [1], the MTAP intact/deleted ratio entry was “B (an IC50 ratio greater than or equal to 3 fold but lower than 10 fold)”.

On to `CNC(=O)N1CCC([C@@H]2CC[C@@H](C)CN2C(=O)C(=O)Nc2cnc(N)c(C)c2)CC1` (racemic) [Compound 781, 4-[(2R,5S)-1-[2-[(6-amino-5-methyl-3-pyridyl)amino]-2-oxo-acetyl]-5-methyl-2-piperidyl]-N-methyl-piperidine-1-carboxamide], for which the IC50 in experiment [1] is < 100 nM; in experiment [2], 50 to 500 nM; in experiment [3], 50 to 500 nM; in experiment [4] it was 50 to 500 nM; in experiment [5] it was > 1000 nM; in experiment [6], 1000 to 10000 nM. In addition, the MTAP intact/deleted ratio entry in experiment [1] is recorded as “A (an IC50 ratio greater than or equal to 10 fold)”.

With `C[C@@H]1CC[C@@H](c2cncc(Cl)c2)N(C(=O)C(=O)Nc2cncc(C(N)=O)c2)C1` (racemic) [Compound 791, 5-(2-(2-(5-chloropyridin-3-yl)-5-methylpiperidin-1-yl)-2-oxoacetamido)nicotinamide], the IC50 in experiment [1] was 100 to 1000 nM; in experiment [2], 50 to 500 nM; in experiment [3] it was < 50 nM; in experiment [4], 50 to 500 nM; in experiment [5] it was > 1000 nM; in experiment [6], 1000 to 10000 nM. For the same compound, in experiment [1], the MTAP intact/deleted ratio entry was “A (an IC50 ratio greater than or equal to 10 fold)”.

Take `Cc1cc(NC(=O)C(=O)N2C[C@H](C)CC[C@H]2c2cnn(-c3ccn[nH]3)c2)cnc1N` (racemic) [Compound 793, N-(6-amino-5-methyl-3-pyridyl)-2-[(2R,5S)-5-methyl-2-[1-(1H-pyrazol-3-yl)pyrazol-4-yl]-1-piperidyl]-2-oxo-acetamide]: the IC50 was 100 to 1000 nM in experiment [1]; 50 to 500 nM in experiment [2]; 50 to 500 nM in experiment [3]; 50 to 500 nM in experiment [4]; > 1000 nM in experiment [5]; 1000 to 10000 nM in experiment [6]. Further, the MTAP intact/deleted ratio entry in experiment [1] was “A (an IC50 ratio greater than or equal to 10 fold)”.

Turning to `Cc1ncc(NC(=O)C(=O)N2C[C@H](C)CC[C@H]2c2ccc3c(c2)CCC(=O)N3)cc1C(F)F` (racemic) [Compound 803, rac-N-[5-(Difluoromethyl)-6-methyl-3-pyridyl]-2-[(2S,5R)-5-methyl-2-(2-oxo-3,4-dihydro-1H-quinolin-6-yl)-1-piperidyl]-2-oxo-acetamide], the IC50 in experiment [1] was < 100 nM; in experiment [2] it was 50 to 500 nM; in experiment [3], < 50 nM; in experiment [4] it was 50 to 500 nM; in experiment [5], > 1000 nM; in experiment [6] it was < 1000 nM. The MTAP intact/deleted ratio entry in experiment [1] is on record as “A (an IC50 ratio greater than or equal to 10 fold)”.

As for `Cc1cc(NC(=O)C(=O)N2C[C@H](C)CC[C@H]2[C@H]2CC3(C[C@H](C(N)=O)C3)C2)cnc1N` (mixture of isomers) [Compound 812, 6-(1-(2-((6-amino-5-methylpyridin-3-yl)amino)-2-oxoacetyl)-5-methylpiperidin-2-yl)spiro[3.3]heptane-2-carboxamide], the IC50 in experiment [1] was > 1000 nM; in experiment [2], > 500 nM; in experiment [3] it was 50 to 500 nM; in experiment [4], > 500 nM; in experiment [5], > 1000 nM; in experiment [6] it was > 10000 nM. Further, the MTAP intact/deleted ratio result in experiment [1] is recorded as “C (an IC50 ratio of less than 3 fold)”.

Turning to `CNC(=O)N1CCCC([C@@H]2CC[C@@H](C)CN2C(=O)C(=O)Nc2cnc(N)c(C)c2)C1` (mixture of isomers) [Compound 814, 1-(2-((6-amino-5-methylpyridin-3-yl)amino)-2-oxoacetyl)-N,5-dimethyl-[2,3′-bipiperidine]-1′-carboxamide], the IC50 in experiment [1] was 100 to 1000 nM; in experiment [2], 50 to 500 nM; in experiment [3] it was 50 to 500 nM; in experiment [4] it was 50 to 500 nM; in experiment [5], > 1000 nM; in experiment [6], > 10000 nM. In addition, the MTAP intact/deleted ratio entry in experiment [1] is given as “A (an IC50 ratio greater than or equal to 10 fold)”.

In the case of `Cc1cc(NC(=O)C(=O)N2C[C@H](C)CC[C@H]2c2cc3cn[nH]c3s2)cnc1N` (racemic) [Compound 815, N-(6-amino-5-methylpyridin-3-yl)-2-(5-methyl-2-(1H-thieno[2,3-c]pyrazol-5-yl)piperidin-1-yl)-2-oxoacetamide], the IC50 in experiment [1] is < 100 nM; in experiment [2], 50 to 500 nM; in experiment [3], < 50 nM; in experiment [4] it was 50 to 500 nM; in experiment [5], 100 to 1000 nM; in experiment [6], < 1000 nM. The MTAP intact/deleted ratio entry in experiment [1] was “A* (an IC50 ratio greater than or equal to 10 fold)”.

As for `C[C@@H]1CC[C@@H](c2ccc(F)cc2)N(C(=O)C(=O)Nc2cnc(OC(F)(F)F)c(C(N)=O)c2)C1` (racemic) [Compound 818, rac 5-[[2-[(2R,5S)-2-(4-fluorophenyl)-5-methyl-1-piperidyl]-2-oxo-acetyl]amino]-2-(trifluoromethoxy)pyridine-3-carboxamide], the IC50 in experiment [1] is 100 to 1000 nM; in experiment [2], 50 to 500 nM; in experiment [3] it was 50 to 500 nM; in experiment [4], 50 to 500 nM; in experiment [5] it was > 1000 nM; in experiment [6], > 10000 nM. Moreover, the MTAP intact/deleted ratio entry in experiment [1] is recorded as “A (an IC50 ratio greater than or equal to 10 fold)”.

With `CNc1nc2cc([C@@H]3CC[C@@H](C)CN3C(=O)C(=O)Nc3cnc(C)c(C)c3)ccc2s1` (racemic) [Compound 828, N-(5,6-dimethyl-3-pyridyl)-2-[(2R,5S)-5-methyl-2-[2-(methylamino)-1,3-benzothiazol-5-yl]-1-piperidyl]-2-oxo-acetamide], the IC50 in experiment [1] is < 100 nM; in experiment [2] it was 50 to 500 nM; in experiment [3], 50 to 500 nM; in experiment [4], 50 to 500 nM; in experiment [5], > 1000 nM; in experiment [6], 1000 to 10000 nM. Moreover, the MTAP intact/deleted ratio result in experiment [1] is “A (an IC50 ratio greater than or equal to 10 fold)”.

In the case of `CC(=O)N[C@H]1CCN(C(=O)C(=O)Nc2cnc(N)c(C)c2)[C@@H](c2ccccc2)C1` (racemic) [Compound 831, 2-[(2R,4S)-4-acetamido-2-phenyl-1-piperidyl]-N-(6-amino-5-methyl-3-pyridyl)-2-oxo-acetamide], the IC50 was > 1000 nM in experiment [1]; > 500 nM in experiment [2]; 50 to 500 nM in experiment [3]; > 500 nM in experiment [4]; > 1000 nM in experiment [5]; > 10000 nM in experiment [6]. Moreover, the MTAP intact/deleted ratio entry in experiment [1] is given as “B (an IC50 ratio greater than or equal to 3 fold but lower than 10 fold)”.

On to `C[C@@H]1CN(C(=O)C(=O)Nc2cncc(C(N)=O)c2)[C@@H](c2ccc(F)cc2)C(F)(F)C1` (racemic) [Compound 836, 5-[[2-[(2S,5S)-3,3-difluoro-2-(4-fluorophenyl)-5-methyl-1-piperidyl]-2-oxo-acetyl]amino]pyridine-3-carboxamide], for which the IC50 in experiment [1] was 100 to 1000 nM; in experiment [2] it was 50 to 500 nM; in experiment [3] it was < 50 nM; in experiment [4], 50 to 500 nM; in experiment [6], 1000 to 10000 nM. In addition, the MTAP intact/deleted ratio result in experiment [1] is on record as “A (an IC50 ratio greater than or equal to 10 fold)”. For the same compound, in experiment [5] (SDMA in-cell western), the “MTAP HAP1 intact IC50” value is reported as “C*”.
